The source made the active and inactive calls. Rule as the data show it, for most assays here: actives have a measured EC50 and inactives only a lower limit.
How the values were obtained:
[1] = Luminescence Cell-Based Dose Response HTS to Identify Activators of Luciferase Translation or Activity in H4 […] Cells. [Related pubchem assays: 1829 (Project Summary), 1814 (Primary HTS)]; assay type: functional
[2] = Luminescence Cell-Based Dose Confirmation HTS to Identify Activators of 5'UTR Stem-Loop Driven Alpha-Synuclein mRNA Translation in H4 Neuroglioblastoma Cells. [Related pubchem assays: 1829 (Project Summary), 1814 (Primary HTS)]; assay type: functional
[3] = test system: H4; assay: Luminescence Cell-Based Dose Response HTS to Identify Activators of 5'UTR Stem-Loop Driven Prion Protein mRNA Translation in H4 Neuroglioblastoma Cells. [Related pubchem assays: 1829 (Project Summary), 1814 (Primary HTS)]; assay type: functional; conditions: Homo sapiens
[4] = NIH-3T3 fibroblast cytotoxicity, dose response, cytotoxicity control, cell-based, fluorescence, Alamar Blue, secondary assay (AID 2327); assay type: functional;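 also: NIH-3T3 mouse fibroblasts cultured with fluconazole at 8 µg/mL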
[5] = C. albicans growth with fluconazole, confirmation, fluorescence, retest (AID 2467); assay type: functional, cell-based
[6] = test system: Streptococcus; assay: Group A Streptococcus viability loss, dose response, counter-screen for streptokinase expression inhibitor project, luminescence, BacTiterGlo (AID 1915); assay type: functional, organism-based;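 also: potency for reduction of bacterial viability or growth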
[7] = test system: Streptococcus sp. 'group A'; assay: growth inhibition of control SK(-) GAS strain, dose response, counter-screen for streptokinase expression inhibitor project, luminescence, kanamycin, BacTiterGlo, confirmation (AID 1900); assay type: functional, organism-based
[8] = molecular target: T1, Streptokinase A (Streptococcus pyogenes serotype M1, UniProt P10520); assay: S. pyogenes streptokinase expression inhibitors, potency, dose response, plasminogen activation absorbance, OD405 (AID 1914); assay type: functional, Streptococcus pyogenes M1 GAS;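 also: secreted streptokinase activity via plasminogen activation per viability signal from cell pellet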
T1 sequence (P10520 whole entry): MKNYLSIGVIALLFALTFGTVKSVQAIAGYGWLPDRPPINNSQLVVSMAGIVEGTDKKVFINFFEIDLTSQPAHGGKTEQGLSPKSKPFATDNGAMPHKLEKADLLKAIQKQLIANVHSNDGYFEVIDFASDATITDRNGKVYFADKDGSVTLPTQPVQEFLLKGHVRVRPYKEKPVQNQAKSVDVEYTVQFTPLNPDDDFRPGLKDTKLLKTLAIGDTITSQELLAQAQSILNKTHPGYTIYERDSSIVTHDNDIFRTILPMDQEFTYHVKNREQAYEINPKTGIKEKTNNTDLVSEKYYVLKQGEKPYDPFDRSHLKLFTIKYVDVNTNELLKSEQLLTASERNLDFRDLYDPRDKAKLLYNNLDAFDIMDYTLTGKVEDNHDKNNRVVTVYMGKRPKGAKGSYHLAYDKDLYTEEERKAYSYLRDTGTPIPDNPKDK

[9] = molecular target: Luciferin 4-monooxygenase (Photinus pyralis, UniProt P08659); assay: firefly luciferase enzyme inhibitors, dose response, biochemical, luminescence (AID 1891)
Chain of Luciferin 4-monooxygenase (P08659 whole entry): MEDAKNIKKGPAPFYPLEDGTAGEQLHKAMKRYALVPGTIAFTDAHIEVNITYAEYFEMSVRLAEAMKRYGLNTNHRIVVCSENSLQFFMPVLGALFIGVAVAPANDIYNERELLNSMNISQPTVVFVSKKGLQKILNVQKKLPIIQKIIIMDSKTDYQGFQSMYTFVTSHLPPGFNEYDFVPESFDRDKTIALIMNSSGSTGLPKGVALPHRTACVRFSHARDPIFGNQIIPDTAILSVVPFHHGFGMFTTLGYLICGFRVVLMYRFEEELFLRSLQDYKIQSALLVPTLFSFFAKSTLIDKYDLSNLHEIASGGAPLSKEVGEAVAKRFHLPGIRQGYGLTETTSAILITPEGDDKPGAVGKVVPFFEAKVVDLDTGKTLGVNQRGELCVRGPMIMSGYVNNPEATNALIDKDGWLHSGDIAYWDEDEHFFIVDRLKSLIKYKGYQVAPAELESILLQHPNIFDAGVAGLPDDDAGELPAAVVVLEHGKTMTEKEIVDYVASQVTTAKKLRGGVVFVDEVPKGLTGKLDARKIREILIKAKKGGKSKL

[10] = Luminescence Cell-Based Dose Confirmation HTS to Identify Inhibitors of Platelet Dense Granule Release. [Related pubchem assays: 1663 (Primary HTS), 1678 (Summary of Project)]; assay type: functional
[11] = molecular target: T2, Rac GTPase-activating protein 1 (Homo sapiens, UniProt Q9H0H5); assay: MgcRacGAP GTPase-activating activity inhibitors, confirmation, biochemical, ADP Hunter fluorescence, primary and confirmatory (AID 624330); assay type: functional
T2 sequence (Q9H0H5 whole entry): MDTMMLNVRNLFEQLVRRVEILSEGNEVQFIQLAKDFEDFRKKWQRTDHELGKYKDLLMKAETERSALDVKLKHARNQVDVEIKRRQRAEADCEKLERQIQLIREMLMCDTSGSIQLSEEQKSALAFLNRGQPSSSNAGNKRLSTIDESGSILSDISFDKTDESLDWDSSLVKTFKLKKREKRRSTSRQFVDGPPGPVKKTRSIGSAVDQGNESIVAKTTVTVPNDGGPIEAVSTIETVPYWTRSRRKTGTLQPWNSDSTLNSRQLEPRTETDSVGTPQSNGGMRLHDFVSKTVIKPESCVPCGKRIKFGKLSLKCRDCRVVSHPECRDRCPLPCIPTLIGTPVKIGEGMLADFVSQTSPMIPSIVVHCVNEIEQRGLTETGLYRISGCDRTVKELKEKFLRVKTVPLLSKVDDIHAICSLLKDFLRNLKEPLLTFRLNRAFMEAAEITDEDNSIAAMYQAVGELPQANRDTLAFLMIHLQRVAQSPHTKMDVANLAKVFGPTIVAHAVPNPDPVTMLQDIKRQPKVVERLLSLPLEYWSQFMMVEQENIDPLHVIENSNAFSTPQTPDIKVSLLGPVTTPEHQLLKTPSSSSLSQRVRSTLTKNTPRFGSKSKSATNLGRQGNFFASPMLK

[12] = molecular target: Paired box protein Pax-8 (Homo sapiens, UniProt Q06710); assay: inhibitors of PAX8-driven TPO luciferase reporter, dose response, RMG-I cells, cherry-pick (AID 687027); assay type: functional, cell-based;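 also: luciferase reporter driven by Pax8 target thyroperoxidase promoter measured by SteadyGlo luminescence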
Chain of Paired box protein Pax-8 (Q06710 whole entry): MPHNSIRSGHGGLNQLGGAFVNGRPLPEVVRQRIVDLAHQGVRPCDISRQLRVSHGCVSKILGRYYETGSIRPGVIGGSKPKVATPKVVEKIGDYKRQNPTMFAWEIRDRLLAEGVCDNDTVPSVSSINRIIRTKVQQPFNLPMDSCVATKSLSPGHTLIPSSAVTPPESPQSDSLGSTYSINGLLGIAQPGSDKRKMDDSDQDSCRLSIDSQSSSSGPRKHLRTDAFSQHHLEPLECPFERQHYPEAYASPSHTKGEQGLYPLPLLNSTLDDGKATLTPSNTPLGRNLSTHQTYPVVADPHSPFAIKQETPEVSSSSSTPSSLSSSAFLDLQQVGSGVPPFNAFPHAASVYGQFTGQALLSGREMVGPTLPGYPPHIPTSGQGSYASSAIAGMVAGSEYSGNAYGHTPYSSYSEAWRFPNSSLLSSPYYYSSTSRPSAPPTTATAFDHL

Question: With CCc1cc2c(=O)c(-c3nc4ccccc4n3C)c(COCC(=O)O)oc2cc1O as the compound, how does the EC50 [1] read?
Answer: > 120 µM (not active)

Question: What about the EC50 [2] of the same compound?
Answer: > 120 µM (not active)

Question: And the EC50 [3]?
Answer: > 120 µM (not active)

Question: For O=C(/C=C/c1ccc(S(=O)(=O)NCc2ccco2)cc1)NCc1ccccc1Cl, which EC50 [1] is on record?
Answer: > 120 µM (not active)

Question: What about the EC50 [2] of the same compound?
Answer: > 120 µM (not active)

Question: What about the EC50 [3] of the same compound?
Answer: 16.4 µM (active)

Question: What does the source list for O=C1C2CCN(CC2)C1Cc1ccc(OCc2ccccc2)cc1 (centres undefined)?
Answer: EC50 [4]: 24 µM (inconclusive); EC50 [5]: 2.41 µM (active)

Question: With Fc1ccccc1CNc1ccc(Cl)c(Cl)c1 as the compound, how does the EC50 [6] read?
Answer: 63.8 µM (active)

Question: What about the EC50 [7] of the same compound?
Answer: 11.4 µM (active)

Question: And the EC50 [8]?
Answer: > 150 µM (not active)

Question: Which EC50 [9] does the source give for CC(=O)Oc1ccc(-c2cc3c(OC(C)=O)cc(OC(C)=O)cc3oc2=O)cc1 here?
Answer: > 112 µM (not active)

Question: And the EC50 [10]?
Answer: 13.7 µM (active)

Question: For COCCCn1c(=S)[nH]c2sc3c(c2c1=O)CCCC3, which IC50 [11] is on record?
Answer: 32.9 µM (active)

Question: For O=C(COc1ccc2c(c1)CCC2)NCc1cccc(Cl)c1, which EC50 [4] is on record?
Answer: > 160 µM (inconclusive)

Question: What about the EC50 [5] of the same compound?
Answer: > 38 µM (not active)

Question: For C=CCOc1ccccc1CN1CCCN(C)CC1, which IC50 [11] is on record?
Answer: 178 µM (active)

Question: Which results are given for CSc1nc2nccc(/C=C\c3ccccc3)n2n1?
Answer: EC50 [1]: > 120 µM (not active); EC50 [2]: > 120 µM (not active); EC50 [3]: > 120 µM (not active)

Question: With Cc1c(C(=O)Nc2ccccc2)sc2nc(-c3ccccc3)cn12 as the compound, how does the EC50 [1] read?
Answer: 6.59 µM (active)

Question: And the EC50 [2]?
Answer: 4.41 µM (active)

Question: What about the EC50 [3] of the same compound?
Answer: 44.2 µM (active)

Question: With Cc1cc(C)n2nc(Nc3ccccc3)cc2n1 as the compound, how does the EC50 [1] read?
Answer: 15.8 µM (active)

Question: What about the EC50 [2] of the same compound?
Answer: 6.86 µM (active)

Question: With COc1cc(/C=C2/C(=N)N3C=C(C)SC3=NC2=O)ccc1O as the compound, how does the IC50 [11] read?
Answer: 71.9 µM (active)

Question: With Oc1ccc(C[C@H]2CNC(=S)N2CC2CCCN2C[C@H](Cc2ccc(O)cc2)N2C[C@H](Cc3ccc(O)cc3)N(CC3CCCCCC3)C2=S)cc1 (some centres undefined) as the compound, how does the AC50 [12] read?
Answer: 5.35 µM (active)

Question: Which AC50 [12] does the source give for Oc1ccc(Cc2ccccc2)c2cccnc12 here?
Answer: 4.48 µM (active)

Question: Which AC50 [12] does the source give for C[C@@H]1CCCCO[C@H](CN(C)S(=O)(=O)c2ccc(Cl)cc2)[C@H](C)CN([C@@H](C)CO)C(=O)c2cc(NS(=O)(=O)c3ccc(F)cc3)ccc2O1 here?
Answer: 4.33 µM (active)

Question: With C[C@H]1CCCCO[C@@H](CN(C)C(=O)c2ccccc2)[C@@H](C)CN([C@@H](C)CO)C(=O)c2cc(NC(=O)Nc3ccc(C(F)(F)F)cc3)ccc2O1 as the compound, how does the AC50 [12] read?
Answer: 3.76 µM (active)

Question: Which AC50 [12] does the source give for COc1ccccc1-c1ccc2c(c1)O[C@H](CN(C)Cc1ccc3c(c1)OCO3)[C@H](C)CN([C@@H](C)CO)S2(=O)=O here?
Answer: 13.5 µM (active)

Question: For C/C(=N/NC(=O)CNC(=O)c1cccnc1)c1cccc([N+](=O)[O-])c1, which EC50 [6] is on record?
Answer: > 150 µM (not active)

Question: And the EC50 [7]?
Answer: > 150 µM (not active)

Question: And the EC50 [8]?
Answer: > 150 µM (not active)

Question: Which EC50 [6] does the source give for CC(C)(C)N/N=C1\CC(c2ccccc2)Oc2ccccc21 (centres undefined) here?
Answer: > 150 µM (not active)

Question: What about the EC50 [7] of the same compound?
Answer: 6.48 µM (active)

Question: And the EC50 [8]?
Answer: 7.08 µM (active)

Question: Which results are given for O=[N+]([O-])c1ccccc1N/N=C1\CCc2ccccc21?
Answer: EC50 [1]: 0.268 µM (active); EC50 [3]: 2.24 µM (active)

From ChEMBL document CHEMBL1201862, “PubChem BioAssay data set” (2004)
